Data taken from PubChem BioAssay AID2060618 (Molecular Pharmacology Branch, DTP, NCI, 2025).
pIC50: −log10 of the molar value. Where “and” joins values, the source holds several entries; their conditions need not be identical. Equal entries are not always repeated.

Tested on: 454973-116-R2-J3-PDC spheroids, percent test/control viability
Assay: Anticancer human tumor 454973-116-R2-J3-PDC patient-derived pancreatic carcinoma cell line growth inhibition [CLK]
Settings: spheroids with HUVEC and MSC; for viability, T/C: stronger effect = lower value
How it was run: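 Patient-derived tumor cells grown as complex spheroids with HUVEC endothelial cells and mesenchymal stem cells, treated with drug combinations. Concentrations descend in half-log steps from near clinical Cmax, or from 10 microM if Cmax unknown.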

[1] = curve of first compound, second compound 0.0316 µM
[2] = curve of first compound, second compound 0.1 µM
[3] = curve of first compound, second compound 0.316 µM
[4] = curve of first compound, second compound 1 µM
[5] = curve of first compound, second compound 3.16 µM
[6] = curve of first compound, second compound 10 µM
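Also: spheroids exposed to compounds for 7 days before readout.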

## CC(C)CC(NC(=O)C(Cc1ccccc1)NC(=O)c1cnccn1)B(O)O (stereo not given) + CNC(=O)c1ccc(Nc2nc(OC3CCCC3)c3c(-c4ccc5nc(C)oc5c4)c[nH]c3n2)c(OC)c1
[1]
  pIC50: 8.59
[2]
  pIC50: 8.54
[3]
  pIC50: 8.97
[4]
  pIC50: > 9.02
[5]
  pIC50: > 9.02
[6]
  pIC50: > 9.02
Second compound 0.0316 µM, first compound 0.000949 µM
  viability, T/C: 104%
Second compound 0.0316 µM, first compound 0.003 µM
  viability, T/C: 41%
Second compound 0.0316 µM, first compound 0.00949 µM
  viability, T/C: 3.37%
Second compound 0.0316 µM, first compound 0.03 µM
  viability, T/C: 3.93%
Second compound 0.0316 µM, first compound 0.0949 µM
  viability, T/C: 1%
Second compound 0.0316 µM, first compound 0.3 µM
  viability, T/C: 1.85%
Second compound 0.1 µM, first compound 0.000949 µM
  viability, T/C: 108%
Second compound 0.1 µM, first compound 0.003 µM
  viability, T/C: 48.3%
Second compound 0.1 µM, first compound 0.00949 µM
  viability, T/C: 0.31%
Second compound 0.1 µM, first compound 0.03 µM
  viability, T/C: 2.58%
Second compound 0.1 µM, first compound 0.0949 µM
  viability, T/C: 2.61%
Second compound 0.1 µM, first compound 0.3 µM
  viability, T/C: 0.65%
Second compound 0.316 µM, first compound 0.000949 µM
  viability, T/C: 54.1%
Second compound 0.316 µM, first compound 0.003 µM
  viability, T/C: 18.6%
Second compound 0.316 µM, first compound 0.00949 µM
  viability, T/C: 1.42%
Second compound 0.316 µM, first compound 0.03 µM
  viability, T/C: 3.86%
Second compound 0.316 µM, first compound 0.0949 µM
  viability, T/C: 1.32%
Second compound 0.316 µM, first compound 0.3 µM
  viability, T/C: 0.81%
Second compound 1 µM, first compound 0.000949 µM
  viability, T/C: 41.6%
Second compound 1 µM, first compound 0.003 µM
  viability, T/C: 7.07%
Second compound 1 µM, first compound 0.00949 µM
  viability, T/C: 2.43%
Second compound 1 µM, first compound 0.03 µM
  viability, T/C: 2.96%
Second compound 1 µM, first compound 0.0949 µM
  viability, T/C: 3.35%
Second compound 1 µM, first compound 0.3 µM
  viability, T/C: 1.14%
Second compound 3.16 µM, first compound 0.000949 µM
  viability, T/C: 30.4%
Second compound 3.16 µM, first compound 0.003 µM
  viability, T/C: 3.95%
Second compound 3.16 µM, first compound 0.00949 µM
  viability, T/C: 1.54%
Second compound 3.16 µM, first compound 0.03 µM
  viability, T/C: 1.66%
Second compound 3.16 µM, first compound 0.0949 µM
  viability, T/C: 2.98%
Second compound 3.16 µM, first compound 0.3 µM
  viability, T/C: 0.23%
Second compound 10 µM, first compound 0.000949 µM
  viability, T/C: 28.3%
Second compound 10 µM, first compound 0.003 µM
  viability, T/C: 2.63%
Second compound 10 µM, first compound 0.00949 µM
  viability, T/C: 1.46%
Second compound 10 µM, first compound 0.03 µM
  viability, T/C: 3.63%
Second compound 10 µM, first compound 0.0949 µM
  viability, T/C: 1.96%
Second compound 10 µM, first compound 0.3 µM
  viability, T/C: 0.7%

## O=c1[nH]cc(F)c(=O)[nH]1
Compound 0.0316 µM
  viability, T/C: 115% and 108%
Compound 0.1 µM
  viability, T/C: 98.1% and 101%
Compound 0.316 µM
  viability, T/C: 95.8% and 103%
Compound 1 µM
  viability, T/C: 64.2% and 43.4%
Compound 3.16 µM
  viability, T/C: 30.3% and 31.5%
Compound 10 µM
  viability, T/C: 35.5% and 36.6%
Curve of compound
  pIC50: 5.77 and 6.06

## C=CC(=O)N1CCN(c2nc(=O)n(-c3c(C)ccnc3C(C)C)c3nc(-c4c(O)cccc4F)c(F)cc23)C(C)C1 (stereo not given) + CNC(=O)c1ccc(Nc2nc(OC3CCCC3)c3c(-c4ccc5nc(C)oc5c4)c[nH]c3n2)c(OC)c1
[1]
  pIC50: < 5.00
[2]
  pIC50: < 5.00
[3]
  pIC50: 7.20
[4]
  pIC50: > 7.50
[5]
  pIC50: > 7.50
[6]
  pIC50: > 7.50
Second compound 0.0316 µM, first compound 0.0316 µM
  viability, T/C: 103%
Second compound 0.0316 µM, first compound 0.1 µM
  viability, T/C: 113%
Second compound 0.0316 µM, first compound 0.316 µM
  viability, T/C: 118%
Second compound 0.0316 µM, first compound 1 µM
  viability, T/C: 124%
Second compound 0.0316 µM, first compound 3.16 µM
  viability, T/C: 122%
Second compound 0.0316 µM, first compound 10 µM
  viability, T/C: 115%
Second compound 0.1 µM, first compound 0.0316 µM
  viability, T/C: 107%
Second compound 0.1 µM, first compound 0.1 µM
  viability, T/C: 113%
Second compound 0.1 µM, first compound 0.316 µM
  viability, T/C: 101%
Second compound 0.1 µM, first compound 1 µM
  viability, T/C: 119%
Second compound 0.1 µM, first compound 3.16 µM
  viability, T/C: 113%
Second compound 0.1 µM, first compound 10 µM
  viability, T/C: 120%
Second compound 0.316 µM, first compound 0.0316 µM
  viability, T/C: 52%
Second compound 0.316 µM, first compound 0.1 µM
  viability, T/C: 48.1%
Second compound 0.316 µM, first compound 0.316 µM
  viability, T/C: 48%
Second compound 0.316 µM, first compound 1 µM
  viability, T/C: 47%
Second compound 0.316 µM, first compound 3.16 µM
  viability, T/C: 47.5%
Second compound 0.316 µM, first compound 10 µM
  viability, T/C: 45%
Second compound 1 µM, first compound 0.0316 µM
  viability, T/C: 28.5%
Second compound 1 µM, first compound 0.1 µM
  viability, T/C: 30.5%
Second compound 1 µM, first compound 0.316 µM
  viability, T/C: 34%
Second compound 1 µM, first compound 1 µM
  viability, T/C: 32.6%
Second compound 1 µM, first compound 3.16 µM
  viability, T/C: 37.3%
Second compound 1 µM, first compound 10 µM
  viability, T/C: 31.4%
Second compound 3.16 µM, first compound 0.0316 µM
  viability, T/C: 32.8%
Second compound 3.16 µM, first compound 0.1 µM
  viability, T/C: 24%
Second compound 3.16 µM, first compound 0.316 µM
  viability, T/C: 30.9%
Second compound 3.16 µM, first compound 1 µM
  viability, T/C: 30.9%
Second compound 3.16 µM, first compound 3.16 µM
  viability, T/C: 28.5%
Second compound 3.16 µM, first compound 10 µM
  viability, T/C: 25.4%
Second compound 10 µM, first compound 0.0316 µM
  viability, T/C: 25.2%
Second compound 10 µM, first compound 0.1 µM
  viability, T/C: 25.6%
Second compound 10 µM, first compound 0.316 µM
  viability, T/C: 25.6%
Second compound 10 µM, first compound 1 µM
  viability, T/C: 26.1%
Second compound 10 µM, first compound 3.16 µM
  viability, T/C: 30.2%
Second compound 10 µM, first compound 10 µM
  viability, T/C: 23.5%

## CN1CCN(c2cc(C(=O)Nc3cc4cc(-c5cnn(C)c5)ccc4cn3)ccn2)CC1
Compound 0.0316 µM
  viability, T/C: 102% [middle of 12 runs]
Compound 0.1 µM
  viability, T/C: 81.8% [middle of 12 runs]
Compound 0.316 µM
  viability, T/C: 2.31% [middle of 11 runs]
Compound 1 µM
  viability, T/C: 0.41% [middle of 10 runs]
Compound 3.16 µM
  viability, T/C: 0.23% [middle of 9 runs]
Compound 10 µM
  viability, T/C: 0.25% [middle of 10 runs]
Compound alone, run of 09/18/2023
  IC50: 159 nM [middle of 9 runs]

## Cn1ncnc1[C@H]1c2n[nH]c(=O)c3cc(F)cc(c23)N[C@@H]1c1ccc(F)cc1
Compound 0.000316 µM
  viability, T/C: 100% and 113%
Compound 0.001 µM
  viability, T/C: 96.3% and 104%
Compound 0.00316 µM
  viability, T/C: 105% and 102%
Compound 0.01 µM
  viability, T/C: 93.3% and 96.9%
Compound 0.0316 µM
  viability, T/C: 93.7% and 87.6%
Compound 0.1 µM
  viability, T/C: 91.9% and 89.7%
Curve of compound
  pIC50: < 7.00
